Data taken from ChEMBL document CHEMBL5303573, “Mapping human microbiome drug metabolism by gut bacteria and their genes” (Nature, 2019).

How the values were obtained:
[1] = The drug is tested on Bacteroides sp. WH2 strain: WH2 for biotransformation. The drug concentrations were measured before and after a 12-h incubation by liquid-chromatography-coupled mass spectrometry (LC–MS); settings: bacteroides sp. wh2, 12 h, 2 µM
[2] = bifidobacterium adolescentis, 12 h, 2 µM
[3] = The drug is tested on Clostridium ramosum strain: DSM1402 for biotransformation. The drug concentrations were measured before and after a 12-h incubation by liquid-chromatography-coupled mass spectrometry (LC–MS); settings: thomasclavelia ramosa, 2 µM
[4] = enterocloster bolteae, 12 h, 2 µM
[5] = The drug is tested on Bacteroides finegoldii strain: DSM17565 for biotransformation. The drug concentrations were measured before and after a 12-h incubation by liquid-chromatography-coupled mass spectrometry (LC–MS); settings: 2 µM
[6] = The drug is tested on Dorea formicigenerans strain: ATCC27755 for biotransformation. The drug concentrations were measured before and after a 12-h incubation by liquid-chromatography-coupled mass spectrometry (LC–MS); settings: 2 µM
[7] = The drug is tested on Bacteroides coprophilus strain: DSM18228 for biotransformation. The drug concentrations were measured before and after a 12-h incubation by liquid-chromatography-coupled mass spectrometry (LC–MS); settings: 2 µM
[8] = The drug is tested on Collinsella aerofaciens strain: ATCC25986 for biotransformation. The drug concentrations were measured before and after a 12-h incubation by liquid-chromatography-coupled mass spectrometry (LC–MS); settings: 2 µM
[9] = parabacteroides distasonis, 12 h, 2 µM
[10] = bacteroides stercoris, 12 h, 2 µM
[11] = parabacteroides johnsonii, 12 h, 2 µM
[12] = bacteroides eggerthii, 12 h, 2 µM
[13] = The drug is tested on Bacteroides caccae strain: ATCC43185 for biotransformation. The drug concentrations were measured before and after a 12-h incubation by liquid-chromatography-coupled mass spectrometry (LC–MS); settings: 2 µM
[14] = The drug is tested on Eubacterium hallii strain: DSM3353 for biotransformation. The drug concentrations were measured before and after a 12-h incubation by liquid-chromatography-coupled mass spectrometry (LC–MS); settings: anaerobutyricum hallii, 2 µM
[15] = The drug is tested on Bacteroides dorei strain: DSM17855 for biotransformation. The drug concentrations were measured before and after a 12-h incubation by liquid-chromatography-coupled mass spectrometry (LC–MS); settings: phocaeicola dorei, 2 µM
[16] = The drug is tested on Enterobacter cancerogenus strain: ATCC35316 for biotransformation. The drug concentrations were measured before and after a 12-h incubation by liquid-chromatography-coupled mass spectrometry (LC–MS); settings: 2 µM
[17] = bacteroides fragilis, 12 h, 2 µM
[18] = The drug is tested on Bacteroides fragilis strain: ATCC43859 for biotransformation. The drug concentrations were measured before and after a 12-h incubation by liquid-chromatography-coupled mass spectrometry (LC–MS); settings: 2 µM
[19] = The drug is tested on Alistipes indistinctus strain: DSM22520 for biotransformation. The drug concentrations were measured before and after a 12-h incubation by liquid-chromatography-coupled mass spectrometry (LC–MS); settings: 2 µM

C=C[C@H]1CN2CC[C@H]1C[C@H]2[C@H](O)c1ccnc2ccc(OC)cc12.C=C[C@H]1CN2CC[C@H]1C[C@H]2[C@H](O)c1ccnc2ccc(OC)cc12.O.O.O=S(=O)(O)O [QUININE SULFATE]
Bacterial Biotransformation [1]: Compound NOT metabolized | Bacterial Biotransformation [2]: Compound NOT metabolized | Bacterial Biotransformation [3]: Compound NOT metabolized | Bacterial Biotransformation [4]: Compound NOT metabolized | Bacterial Biotransformation [5]: Compound NOT metabolized | Bacterial Biotransformation [6]: Compound NOT metabolized | Bacterial Biotransformation [7]: Compound NOT metabolized | Bacterial Biotransformation [8]: Compound NOT metabolized | Bacterial Biotransformation [9]: Compound NOT metabolized | Bacterial Biotransformation [10]: Compound NOT metabolized | Bacterial Biotransformation [11]: Compound NOT metabolized | Bacterial Biotransformation [12]: Compound NOT metabolized | Bacterial Biotransformation [13]: Compound NOT metabolized | Bacterial Biotransformation [14]: Compound NOT metabolized

O=C(O[C@H]1C[C@H]2CC[C@@H](C1)[N+]21CCCC1)C(O)(c1ccccc1)c1ccccc1.[Cl-] [TROSPIUM CHLORIDE]
Bacterial Biotransformation [1]: Compound NOT metabolized | Bacterial Biotransformation [2]: Compound NOT metabolized | Bacterial Biotransformation [15]: Compound NOT metabolized | Bacterial Biotransformation [3]: Compound NOT metabolized | Bacterial Biotransformation [4]: Compound NOT metabolized | Bacterial Biotransformation [5]: Compound NOT metabolized | Bacterial Biotransformation [6]: Compound NOT metabolized | Bacterial Biotransformation [8]: Compound NOT metabolized | Bacterial Biotransformation [9]: Compound NOT metabolized | Bacterial Biotransformation [16]: Compound NOT metabolized | Bacterial Biotransformation [10]: Compound NOT metabolized | Bacterial Biotransformation [11]: Compound NOT metabolized | Bacterial Biotransformation [12]: Compound NOT metabolized | Bacterial Biotransformation [17]: Compound NOT metabolized | Bacterial Biotransformation [13]: Compound NOT metabolized | Bacterial Biotransformation [14]: Compound NOT metabolized

CC(C)(C)NCC(O)COc1cccc2c1CC(O)C(O)C2 (stereo not drawn) [NADOLOL]
Bacterial Biotransformation [1]: Compound NOT metabolized | Bacterial Biotransformation [2]: Compound NOT metabolized | Bacterial Biotransformation [3]: Compound NOT metabolized | Bacterial Biotransformation [4]: Compound NOT metabolized | Bacterial Biotransformation [5]: Compound NOT metabolized | Bacterial Biotransformation [6]: Compound NOT metabolized | Bacterial Biotransformation [8]: Compound NOT metabolized | Bacterial Biotransformation [18]: Compound NOT metabolized | Bacterial Biotransformation [16]: Compound NOT metabolized | Bacterial Biotransformation [10]: Compound NOT metabolized | Bacterial Biotransformation [11]: Compound NOT metabolized | Bacterial Biotransformation [12]: Compound NOT metabolized | Bacterial Biotransformation [17]: Compound NOT metabolized | Bacterial Biotransformation [13]: Compound NOT metabolized | Bacterial Biotransformation [14]: Compound NOT metabolized

CC(C)(C)NC[C@H](O)COc1ccccc1C1CCCC1.CC(C)(C)NC[C@H](O)COc1ccccc1C1CCCC1.O=S(=O)(O)O [PENBUTOLOL SULFATE]
Bacterial Biotransformation [1]: Compound NOT metabolized | Bacterial Biotransformation [2]: Compound NOT metabolized | Bacterial Biotransformation [4]: Compound NOT metabolized | Bacterial Biotransformation [5]: Compound NOT metabolized | Bacterial Biotransformation [19]: Compound NOT metabolized | Bacterial Biotransformation [6]: Compound NOT metabolized | Bacterial Biotransformation [8]: Compound NOT metabolized | Bacterial Biotransformation [9]: Compound NOT metabolized | Bacterial Biotransformation [10]: Compound NOT metabolized | Bacterial Biotransformation [12]: Compound NOT metabolized | Bacterial Biotransformation [13]: Compound NOT metabolized | Bacterial Biotransformation [14]: Compound NOT metabolized

CC12CC3CC(C)(C1)CC(N)(C3)C2 [MEMANTINE]
Bacterial Biotransformation [1]: Compound NOT metabolized | Bacterial Biotransformation [2]: Compound NOT metabolized | Bacterial Biotransformation [15]: Compound NOT metabolized | Bacterial Biotransformation [3]: Compound NOT metabolized | Bacterial Biotransformation [4]: Compound NOT metabolized | Bacterial Biotransformation [5]: Compound NOT metabolized | Bacterial Biotransformation [6]: Compound NOT metabolized | Bacterial Biotransformation [7]: Compound NOT metabolized | Bacterial Biotransformation [8]: Compound NOT metabolized | Bacterial Biotransformation [9]: Compound NOT metabolized | Bacterial Biotransformation [16]: Compound NOT metabolized | Bacterial Biotransformation [10]: Compound NOT metabolized | Bacterial Biotransformation [11]: Compound NOT metabolized | Bacterial Biotransformation [12]: Compound NOT metabolized | Bacterial Biotransformation [17]: Compound NOT metabolized | Bacterial Biotransformation [13]: Compound NOT metabolized | Bacterial Biotransformation [14]: Compound NOT metabolized

NC(CO)(CO)CO.O=C(c1ccccc1)c1ccc2n1CCC2C(=O)O (stereo not drawn) [KETOROLAC TROMETHAMINE]
Bacterial Biotransformation [1]: Compound NOT metabolized | Bacterial Biotransformation [2]: Compound NOT metabolized | Bacterial Biotransformation [15]: Compound metabolized | Bacterial Biotransformation [3]: Compound NOT metabolized | Bacterial Biotransformation [4]: Compound NOT metabolized | Bacterial Biotransformation [19]: Compound NOT metabolized | Bacterial Biotransformation [6]: Compound NOT metabolized | Bacterial Biotransformation [8]: Compound NOT metabolized | Bacterial Biotransformation [18]: Compound metabolized | Bacterial Biotransformation [16]: Compound NOT metabolized | Bacterial Biotransformation [11]: Compound NOT metabolized | Bacterial Biotransformation [12]: Compound NOT metabolized | Bacterial Biotransformation [13]: Compound NOT metabolized

Cc1ccc(/C(=C\CN2CCCC2)c2ccccn2)cc1 [TRIPROLIDINE]
Bacterial Biotransformation [1]: Compound NOT metabolized | Bacterial Biotransformation [2]: Compound NOT metabolized | Bacterial Biotransformation [15]: Compound NOT metabolized | Bacterial Biotransformation [3]: Compound NOT metabolized | Bacterial Biotransformation [4]: Compound NOT metabolized | Bacterial Biotransformation [5]: Compound NOT metabolized | Bacterial Biotransformation [19]: Compound NOT metabolized | Bacterial Biotransformation [6]: Compound NOT metabolized | Bacterial Biotransformation [7]: Compound NOT metabolized | Bacterial Biotransformation [8]: Compound NOT metabolized | Bacterial Biotransformation [9]: Compound NOT metabolized | Bacterial Biotransformation [18]: Compound NOT metabolized | Bacterial Biotransformation [10]: Compound NOT metabolized | Bacterial Biotransformation [11]: Compound NOT metabolized | Bacterial Biotransformation [12]: Compound NOT metabolized | Bacterial Biotransformation [17]: Compound NOT metabolized | Bacterial Biotransformation [13]: Compound NOT metabolized | Bacterial Biotransformation [14]: Compound NOT metabolized

OC(c1cc(C(F)(F)F)nc2c(C(F)(F)F)cccc12)C1CCCCN1 (stereo not drawn) [MEFLOQUINE]
Bacterial Biotransformation [1]: Compound NOT metabolized | Bacterial Biotransformation [2]: Compound NOT metabolized | Bacterial Biotransformation [15]: Compound NOT metabolized | Bacterial Biotransformation [4]: Compound NOT metabolized | Bacterial Biotransformation [5]: Compound NOT metabolized | Bacterial Biotransformation [19]: Compound NOT metabolized | Bacterial Biotransformation [6]: Compound NOT metabolized | Bacterial Biotransformation [7]: Compound NOT metabolized | Bacterial Biotransformation [8]: Compound NOT metabolized | Bacterial Biotransformation [9]: Compound NOT metabolized | Bacterial Biotransformation [18]: Compound NOT metabolized | Bacterial Biotransformation [16]: Compound NOT metabolized | Bacterial Biotransformation [10]: Compound NOT metabolized | Bacterial Biotransformation [11]: Compound NOT metabolized | Bacterial Biotransformation [12]: Compound NOT metabolized | Bacterial Biotransformation [17]: Compound NOT metabolized | Bacterial Biotransformation [13]: Compound NOT metabolized | Bacterial Biotransformation [14]: Compound NOT metabolized

C[C@@H]1C[C@H]2[C@@H]3CCC4=CC(=O)C=C[C@]4(C)[C@@]3(F)[C@@H](O)C[C@]2(C)[C@@]1(O)C(=O)CO [DEXAMETHASONE]
Bacterial Biotransformation [1]: Compound NOT metabolized | Bacterial Biotransformation [2]: Compound NOT metabolized | Bacterial Biotransformation [15]: Compound metabolized | Bacterial Biotransformation [5]: Compound NOT metabolized | Bacterial Biotransformation [19]: Compound NOT metabolized | Bacterial Biotransformation [6]: Compound NOT metabolized | Bacterial Biotransformation [7]: Compound NOT metabolized | Bacterial Biotransformation [9]: Compound NOT metabolized | Bacterial Biotransformation [18]: Compound metabolized | Bacterial Biotransformation [16]: Compound NOT metabolized | Bacterial Biotransformation [10]: Compound metabolized | Bacterial Biotransformation [11]: Compound metabolized | Bacterial Biotransformation [12]: Compound NOT metabolized | Bacterial Biotransformation [13]: Compound NOT metabolized | Bacterial Biotransformation [14]: Compound NOT metabolized
